The CheMixHub viscosity set

Assay: xn = mol fraction of the nth substance listed

CCC(=O)OC + C1CCCCC1
viscosity [mPa·s], 101 kPa
Conditions | 298.15 K | 308.15 K
x1 = 0.0565 | 0.827 | 0.699
x1 = 0.1524 | 0.742 | 0.621
x1 = 0.2574 | 0.67 | 0.556
x1 = 0.3378 | 0.626 | 0.517
x1 = 0.4555 | 0.578 | 0.475
x1 = 0.4981 | 0.565 | 0.463
x1 = 0.5542 | 0.55 | 0.45
x1 = 0.6536 | 0.532 | 0.434
x1 = 0.7514 | 0.522 | 0.426
x1 = 0.8265 | 0.519 | 0.424
x1 = 0.9564 | 0.526 | 0.432

CCCCn1cc[n+](C)c1.[Cl-] + CC#N
Conditions | viscosity [mPa·s]
308.15 K, 101 kPa, x2 = 0.7003 | 8.47

CCCOCCO + CC(=O)N(C)C
298.15 K, 101 kPa
Conditions | viscosity [mPa·s]
x1 = 0.0049 | 0.951
x1 = 0.0086 | 0.956
x1 = 0.0134 | 0.961
x1 = 0.0272 | 0.982
x1 = 0.0419 | 1.01
x1 = 0.0739 | 1.049
x1 = 0.1253 | 1.125
x1 = 0.178 | 1.202
x1 = 0.2555 | 1.322
x1 = 0.3191 | 1.426
x1 = 0.3487 | 1.478
x1 = 0.3842 | 1.536
x1 = 0.4022 | 1.578
x1 = 0.4678 | 1.679
x1 = 0.5258 | 1.786
x1 = 0.5917 | 1.897
x1 = 0.6504 | 1.987
x1 = 0.725 | 2.094
x1 = 0.8523 | 2.26
x1 = 0.9508 | 2.339
x1 = 0.979 | 2.345

N#Cc1ccccc1 + CC(C)(C)O
viscosity [mPa·s], 101.33 kPa
Conditions | x1 = 0.0567 | x1 = 0.1542 | x1 = 0.2837 | x1 = 0.3997 | x1 = 0.4923 | x1 = 0.5993 | x1 = 0.7289 | x1 = 0.8283 | x1 = 0.8923
303.15 K | 2.895 | 2.017 | 1.578 | 1.365 | 1.262 | 1.203 | 1.142 | 1.121 | 1.114
308.15 K | 2.311 | 1.696 | 1.368 | 1.223 | 1.137 | 1.094 | 1.043 | 1.034 | 1.028
313.15 K | 1.811 | 1.429 | 1.187 | 1.072 | 1.021 | 1.001 | 0.98 | 0.962 | 0.951

CCCOCCO + CC(C)O
298.15 K, 101.33 kPa
Conditions | viscosity [mPa·s]
x1 = 0.0175 | 2.056
x1 = 0.0326 | 2.039
x1 = 0.0724 | 2.009
x1 = 0.0909 | 1.994
x1 = 0.1266 | 1.98
x1 = 0.1696 | 1.971
x1 = 0.2052 | 1.967
x1 = 0.249 | 1.967
x1 = 0.295 | 1.97
x1 = 0.3499 | 1.977
x1 = 0.398 | 1.993
x1 = 0.4072 | 1.997
x1 = 0.4661 | 2.019
x1 = 0.5167 | 2.041
x1 = 0.556 | 2.061
x1 = 0.6058 | 2.084
x1 = 0.6612 | 2.119
x1 = 0.7297 | 2.159
x1 = 0.7751 | 2.192
x1 = 0.8315 | 2.23
x1 = 0.8979 | 2.275
x1 = 0.9565 | 2.318

CCC(=O)OC + CCCCCCC
viscosity [mPa·s], 101.3 kPa
Conditions | 308.15 K | 318.15 K
x1 = 0.0447 | 0.354 | 0.322
x1 = 0.1083 | 0.355 | 0.326
x1 = 0.1932 | 0.358 | 0.332
x1 = 0.3018 | 0.362 | 0.34
x1 = 0.4146 | 0.369 | 0.349
x1 = 0.5227 | 0.377 | 0.359
x1 = 0.5693 | 0.381 | 0.363
x1 = 0.7002 | 0.395 | 0.377
x1 = 0.7986 | 0.407 | 0.389
x1 = 0.9016 | 0.421 | 0.402
x1 = 0.9509 | 0.429 | 0.409

CC(C)C(C)C + CCCCCCCCCCCC
298 K, 101.33 kPa
Conditions | viscosity [mPa·s]
x1 = 0.101 | 1.237
x1 = 0.2039 | 1.127
x1 = 0.297 | 1.018
x1 = 0.4013 | 0.898
x1 = 0.4985 | 0.7936
x1 = 0.6035 | 0.6871
x1 = 0.7426 | 0.5433
x1 = 0.8116 | 0.4795
x1 = 0.9014 | 0.4023

CC(C)C(C)C + CCCCCCCCCCCCCC
298 K, 101.33 kPa
Conditions | viscosity [mPa·s]
x1 = 0.1 | 1.884
x1 = 0.2006 | 1.669
x1 = 0.3044 | 1.451
x1 = 0.4033 | 1.246
x1 = 0.503 | 1.051
x1 = 0.6031 | 0.8719
x1 = 0.701 | 0.7123
x1 = 0.8016 | 0.5711
x1 = 0.9008 | 0.4356

CC(C)C(C)C + CCCCCCCCCCCCCCCC
298 K, 101.33 kPa
Conditions | viscosity [mPa·s]
x1 = 0.0846 | 2.773
x1 = 0.2077 | 2.325
x1 = 0.2966 | 2.045
x1 = 0.3988 | 1.74
x1 = 0.4973 | 1.432
x1 = 0.6023 | 1.135
x1 = 0.7034 | 0.8764
x1 = 0.8019 | 0.6623
x1 = 0.9002 | 0.4751

CCCOCCO + CCCCCO
298.15 K, 101.33 kPa
Conditions | viscosity [mPa·s]
x1 = 0.0215 | 3.463
x1 = 0.0339 | 3.418
x1 = 0.0569 | 3.355
x1 = 0.0878 | 3.254
x1 = 0.1148 | 3.179
x1 = 0.1461 | 3.103
x1 = 0.1776 | 3.025
x1 = 0.2194 | 2.928
x1 = 0.2669 | 2.847
x1 = 0.327 | 2.776
x1 = 0.3773 | 2.72
x1 = 0.4289 | 2.667
x1 = 0.4842 | 2.61
x1 = 0.4911 | 2.608
x1 = 0.5387 | 2.574
x1 = 0.5721 | 2.548
x1 = 0.61 | 2.524
x1 = 0.6569 | 2.493
x1 = 0.7066 | 2.458
x1 = 0.7368 | 2.441
x1 = 0.7698 | 2.426
x1 = 0.8114 | 2.404
x1 = 0.8483 | 2.389
x1 = 0.8888 | 2.374
x1 = 0.9244 | 2.363
x1 = 0.963 | 2.353
x2 = 0.0102 | 2.35

N#Cc1ccccc1 + CCCCCO
viscosity [mPa·s], 101.33 kPa
Conditions | x1 = 0.1034 | x1 = 0.1623 | x1 = 0.3038 | x1 = 0.387 | x1 = 0.5033 | x1 = 0.6086 | x1 = 0.7205 | x1 = 0.82 | x1 = 0.9162
303.15 K | 2.395 | 2.152 | 1.737 | 1.558 | 1.374 | 1.262 | 1.182 | 1.153 | 1.14
308.15 K | 2.116 | 1.925 | 1.565 | 1.406 | 1.244 | 1.162 | 1.097 | 1.079 | 1.064
313.15 K | 1.895 | 1.723 | 1.412 | 1.283 | 1.14 | 1.07 | 1.017 | 1.01 | 0.993

CC(=O)CCc1ccccc1 + CCCCCOC(C)=O
298.15 K, 101 kPa
Conditions | viscosity [mPa·s]
x1 = 0.0322 | 0.8102
x1 = 0.0702 | 0.8323

CCCCC[N+](CC)(CC)CC.O=S(=O)([N-]S(=O)(=O)C(F)(F)F)C(F)(F)F + CCCCC[P+](CC)(CC)CC.O=S(=O)([N-]S(=O)(=O)C(F)(F)F)C(F)(F)F
viscosity [mPa·s], 101.3 kPa
Conditions | 298.15 K | 303.15 K | 308.15 K | 313.15 K | 318.15 K
x1 = 0.2 | 96.6 | 75.4 | 59.8 | – | –
x1 = 0.4 | – | 83.6 | 65.8 | 52.7 | –
x1 = 0.6 | – | 94.3 | 73.6 | 58.4 | –
x1 = 0.8 | – | – | 83.8 | – | 52.8

N#Cc1ccccc1 + CCCCO
viscosity [mPa·s], 101.33 kPa
Conditions | x1 = 0.033 | x1 = 0.1519 | x1 = 0.2155 | x1 = 0.3392 | x1 = 0.4092 | x1 = 0.504 | x1 = 0.6218 | x1 = 0.7894 | x1 = 0.9629
303.15 K | 2.094 | 1.716 | 1.583 | 1.382 | 1.3 | 1.213 | 1.149 | 1.108 | 1.119
308.15 K | 1.844 | 1.534 | 1.414 | 1.245 | 1.186 | 1.108 | 1.053 | 1.021 | 1.04
313.15 K | 1.66 | 1.378 | 1.281 | 1.14 | 1.08 | 1.02 | 0.976 | 0.945 | 0.978

Nc1cccc2ccccc12 + CCCCO
viscosity [mPa·s], 101 kPa
Conditions | x1 = 0.03572 | x1 = 0.06889 | x1 = 0.1289 | x1 = 0.1817 | x1 = 0.2285 | x1 = 0.2702 | x1 = 0.3076
293.15 K | 3.082 | 3.202 | 3.539 | 3.906 | 4.311 | 4.724 | 5.193
303.15 K | 2.355 | 2.427 | 2.641 | 2.879 | 3.134 | 3.39 | 3.681
313.15 K | 1.828 | 1.878 | 2.019 | 2.186 | 2.355 | 2.532 | 2.719
323.15 K | 1.456 | 1.494 | 1.596 | 1.718 | 1.839 | 1.965 | 2.097

C[n+]1ccn(CCc2ccccc2)c1.[Cl][Al-]([Cl])([Cl])[Cl] + CCCC[n+]1ccn(C)c1.[Cl][Al-]([Cl])([Cl])[Cl]
viscosity [mPa·s], 101 kPa
Conditions | 293.15 K | 298.15 K | 303.15 K | 308.15 K | 313.15 K | 318.15 K | 323.15 K
x2 = 0.5 | 92.4 | 74.8 | 60.6 | 50.1 | 41.7 | 36.4 | 32.1
x2 = 0.6 | 75.1 | 60 | 50.6 | 41.6 | 35.6 | 30.4 | 27

CCCOCCO + CCCN
viscosity [mPa·s], 101.33 kPa
Conditions | 298.15 K | 308.15 K | 318.15 K
x1 = 0.0069 | 0.365 | 0.336 | 0.296
x1 = 0.0201 | 0.383 | 0.346 | 0.307
x1 = 0.054 | 0.429 | 0.385 | 0.335
x1 = 0.1049 | 0.509 | 0.446 | 0.382
x1 = 0.1955 | 0.678 | 0.574 | 0.481
x1 = 0.2496 | 0.797 | 0.668 | 0.55
x1 = 0.3215 | 0.969 | 0.8 | 0.655
x1 = 0.3686 | 1.103 | 0.895 | 0.722
x1 = 0.4528 | 1.338 | 1.075 | 0.853
x1 = 0.4581 | 1.355 | 1.088 | 0.862
x1 = 0.5595 | 1.629 | 1.289 | 1.015
x1 = 0.6789 | 1.925 | 1.51 | 1.175
x1 = 0.752 | 2.082 | 1.628 | 1.265
x1 = 0.8162 | 2.191 | 1.715 | 1.32
x1 = 0.8943 | 2.282 | 1.803 | 1.385
x1 = 0.9697 | 2.333 | 1.867 | 1.435
